Tests used:
[1] = test system: 1205Lu melanoma cell line; assay: Cell proliferation (MTT) assay; format: cell-based, human; conditions: increasing concentrations, 72 hours, FIG. 4B
Method: Cell Proliferation (MTT) Assay. Cells were plated into a 96-well plate at a density of 2.5×10^4 cells per ml and left to grow overnight. Cells were treated with increasing concentrations of E5E1 (0.03-30 μM), […] or LY 294002 (Calbiochem, San Diego, Calif.) (0.01-30 μM) in triplicate. In each instance cells were grown for 72 hours before being treated with 20 μl of MTT for 3 hours (Sigma). After this time, the media was rapidly removed and the MTT crystals were solubilized using DMSO. The resulting absorbance was read in a plate reader at 560 nm. Absorbance readings were subtracted from the value of blank wells, the reduction in cell growth was calculated as a percentage of control absorbance in the absence of any drug.

[2] = test system: melanoma cells grown as 3D collagen-implanted spheroids; assay: 3D spheroid growth / invasion; format: cell-based, human; conditions: 30 μM; 72 hours; FIG. 4C
Method: 3D Spheroid Growth. Melanoma spheroids were prepared using the liquid overlay method. Briefly, […] of melanoma cells (25,000 cells per ml) were added to a 96-well plate coated with 1.5% agar (Difco, Sparks MD). Plates were left to incubate for 72 hours, by which time cells had organized into 3D spheroids. Spheroids were then harvested using a P1000 pipette. The media was removed and the spheroids were implanted into a gel of bovine collagen I containing EMEM, L-glutamine and 2% FBS. Normal 2% melanoma media was overlaid on top of the solidified collagen. Spheroids were treated with either E5E1 (10-30 μM), or E5E2 (10-30 μM), before being left to grow for 72 hours. Spheroids were then washed twice in PBS before being treated with calcein-AM, ethidium bromide (Molecular Probes, Eugene, Oreg.) for 1 hour at 37° C., according to the manufacturer's instruction. After this time, pictures of the invading spheroids were taken using a Nikon-300 inverted fluorescence microscope.

[3] = target: T1, human PI3Kγ catalytic domain (Homo sapiens, UniProt P48736); assay: PI3K Kinase-Glo assay; format: biochemical; conditions: for IC50: 1.4 pmoles PI3K, FIG. 3A, read-out: IC50 PI3Kγ inhibition
T1 construct: made in house; host or cells: baculovirus expression (virus obtained from the MRC, United Kingdom)
Method: PI3K Kinase-Glo Assay. Recombinantly expressed human PI3Kγ catalytic domain was preincubated with various concentration of inhibitors with a final DMSO concentration of 2% in reaction buffer (20 mM Tris pH 7.5, 100 mM NaCl, 10 mM MgCl2) for 1 hour at room temperature before this mixture was added to a solution of 0.1 mg/mL D-myo-Phosphatidylinositol 4,5-biphosphate (PtdIns (4,5)P2, Echelon Biosciences) and 10 μM ATP. 14 pmoles PI3K was used in compounds DW12, DW12Me, EAd125 comparison and 1.4 pmoles PI3K was used for compounds E5, E5E2, E5E1 measurements. The kinase reaction was carried out in a 50 μL final volume in a 96-well microtiter plate at 37° C. for 3 hours before 50 μL Kinase-Glo® (Promega) developing solution was added into the mixture to generate a luminescence signal. The signal was recorded using the PerkinElmer Wallac 1420 luminometer using a luminescence filter. Data were processed and IC50 values were derived from using 2% DMSO and with no kinase as controls and a sigmoidal dose response curve fitting by GraphPad Prism.

[4] = test system: phospho-AKT in a melanoma cell line; assay: Western blot analysis of phospho-AKT in melanoma cells; format: cell-based, human; conditions: FIG. 4A
Excerpt: Western Blot Analysis. Proteins were extracted and blotted for as described in (41). […] Antibodies to phospho-AKT and total AKT were from Cell Signaling Technology, (Beverly, Mass.). The monoclonal antibody to β-actin was from Sigma.

[5] = target: PAK1 (Homo sapiens, UniProt Q13153); assay: PAK1 kinase assay; format: biochemical; conditions: inhibitor concentration of 4 μM; FIG. 3B
Method: PAK1 kinase assay—Kinase assays were performed using labeled γ-P^32 ATP and the incorporation of labeled phosphate onto the myelin basic protein (MBP) substrate was monitored. Different concentrations of compound inhibitor were incubated with 0.1 nM PAK1 kinase in 20 mM MOPS pH 7, 30 mM MgCl2, 1 mM EDTA, 0.8 μg/μL bovine serum albumin, 5% DMSO (resulting from the inhibitor stock solution), in the presence of 25 μg of MBP substrate for 20 minutes. Reactions were initiated by adding ATP to a final concentration of 1 μM including 0.2 μCi/μL γ-^32P ATP to a final volume of 25 μL. The reactions were terminated by spotting 17.5 μL onto a circular P81 phosphocellulose paper (diameter 2.1 cm), followed by washing three times with 0.75% phosphoric acid and one time with acetone. The dried P81 papers were transferred to scintillation vials and 4 ml of scintillation cocktail was added. The counts per minute (CPM) were measured with a scintillation counter and the enzyme activity in the presence of the inhibitor was calculated as a percentage of the control sample corrected by the background.

[6] = target: BRAF mutants (Leu513 mutated to valine and alanine); assay: BRAF kinase assay with site directed mutants; format: biochemical, human; conditions: FIG. 6B
Method: BRAF kinase assay—Recombinantly expressed GST-MEK diluted in TTBS buffer (20 mM Tris pH 7.5, 150 mM NaCl, 0.05% TWEEN-20) to 50 μg/mL in a volume of 100 μL was bound to the wells of a 96-well glutathione coated plate (Pierce Biotechnology). 1 μL of compound with 2× serial dilutions in a 100% DMSO stock solution were added to a mixture of 50 μL of a buffer containing 50 mM HEPES pH 7.0 with 0.7 pmoles of BRAF kinase. This mixture was incubated at room temperature for 1 hour before it was added into the GST-MEK bound wells of the 96-well plate. An additional 50 μL of phosphorylation buffer (50 mM HEPES pH 7.0, 200 mM NaCl, 10 mM MgCl2, 200 μM ATP) was added into the well mixture to start the kinase reaction at 37° C. for 30 min with intermittent shaking. The kinase reaction was stopped by extensive washing with TTBS buffer and a 1:5000 dilution of Anti-phospho-MEK1 (Ser218/222)/MEK2 (Ser222/226) monoclonal antibody (Millipore) in TTBS was subsequently added into the wells and incubated for 1 hour with shaking. Goat Anti-Rabbit IgG (H+L)-HRP Conjugate (BioRad Laboratories) in a 1:5000 dilution was added into the wells to incubate at room temperature with shaking. Finally, the SuperSignal ELISA Pico chemiluminescent substrate (Pierce Biotechnology) was added into the wells. The luminescence signal was recorded with a luminescence filter using a Wallac 1420 luminometer (PerkinElmer). […]

[7] = target: BRAF^V600E (Homo sapiens, UniProt P15056, V600E); assay: BRAF kinase assay (V600E); format: biochemical; conditions: inhibitor concentration of 4 μM; FIG. 3B
Method: (§1) BRAF kinase assay—Recombinantly expressed GST-MEK diluted in TTBS buffer (20 mM Tris pH 7.5, 150 mM NaCl, 0.05% TWEEN-20) to 50 μg/mL in a volume of 100 μL was bound to the wells of a 96-well glutathione coated plate (Pierce Biotechnology). 1 μL of compound with 2× serial dilutions in a 100% DMSO stock solution were added to a mixture of 50 μL of a buffer containing 50 mM HEPES pH 7.0 with 0.7 pmoles of BRAF kinase. This mixture was incubated at room temperature for 1 hour before it was added into the GST-MEK bound wells of the 96-well plate. An additional 50 μL of phosphorylation buffer (50 mM HEPES pH 7.0, 200 mM NaCl, 10 mM MgCl2, 200 μM ATP) was added into the well mixture to start the kinase reaction at 37° C. for 30 min with intermittent shaking. The kinase reaction was stopped by extensive washing with TTBS buffer and a 1:5000 dilution of Anti-phospho-MEK1 (Ser218/222)/MEK2 (Ser222/226) monoclonal antibody (Millipore) in TTBS was subsequently added into the wells and incubated for 1 hour with shaking. Goat Anti-Rabbit IgG (H+L)-HRP Conjugate (BioRad Laboratories) in a 1:5000 dilution was added into the wells to incubate at room temperature with shaking. Finally, the SuperSignal ELISA Pico chemiluminescent substrate (Pierce Biotechnology) was added into the wells. The luminescence signal was recorded with a luminescence filter using a Wallac 1420 luminometer (PerkinElmer).

[8] = target: BRAF^WT (Homo sapiens, UniProt P15056); assay: BRAF kinase assay (wild type); format: biochemical
Method: as §1

[9] = target: T2, MST1 (Homo sapiens, UniProt Q13043); assay: MST1 kinase assay; format: biochemical; conditions: inhibitor concentration of 4 μM; FIG. 3B
T2 sequence (Q13043 1-487): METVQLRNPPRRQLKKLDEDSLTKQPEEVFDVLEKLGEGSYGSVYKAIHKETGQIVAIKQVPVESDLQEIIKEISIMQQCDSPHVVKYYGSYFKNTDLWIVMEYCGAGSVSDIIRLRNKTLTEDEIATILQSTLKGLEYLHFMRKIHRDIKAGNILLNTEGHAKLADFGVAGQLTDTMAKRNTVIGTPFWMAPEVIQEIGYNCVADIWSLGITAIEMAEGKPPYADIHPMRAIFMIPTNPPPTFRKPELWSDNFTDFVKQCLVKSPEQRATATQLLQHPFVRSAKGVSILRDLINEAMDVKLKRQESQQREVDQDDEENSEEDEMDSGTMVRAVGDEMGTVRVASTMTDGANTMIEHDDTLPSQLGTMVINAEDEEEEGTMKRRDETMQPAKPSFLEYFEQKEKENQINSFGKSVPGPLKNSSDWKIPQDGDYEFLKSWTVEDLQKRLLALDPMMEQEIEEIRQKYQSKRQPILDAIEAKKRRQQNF
Method: MST1 kinase assay—Kinase assays were performed using labeled γ-P^32 ATP and the incorporation of labeled phosphate onto the substrate FOXO was monitored. Kinase assays were performed using kinase buffer containing 10 mM Tris pH 7.5, 10 mM MgCl2, 1 mM dithiothreitol (DTT), 1 mM phenylmethylsulfonyl fluoride (PMSF) and a cocktail containing phosphatase inhibitor. 5 μCi of labeled γ-P^32 ATP and a final concentration of 200 μM of ATP were used for each reaction. 10 nM of the enzyme was pre-incubated for 30 min with various concentrations of inhibitor and an equivalent amount of DMSO was used as a control. After 30 min of incubation of the enzyme with the inhibitor, 1 μg of substrate was added. The reaction was initiated by addition of ATP. All reactions were incubated at 37° C. for 30 min. and then stopped with SDS gel-loading dye; subsequently samples were heated for 3 min and loaded onto a 16% Tris-glycine gel (Novagen). The bands were visualized using high sensitivity Kodak film and the results were quantified using the software ImageJ.

T1 sequence (P48736 144-1102 limits assumed): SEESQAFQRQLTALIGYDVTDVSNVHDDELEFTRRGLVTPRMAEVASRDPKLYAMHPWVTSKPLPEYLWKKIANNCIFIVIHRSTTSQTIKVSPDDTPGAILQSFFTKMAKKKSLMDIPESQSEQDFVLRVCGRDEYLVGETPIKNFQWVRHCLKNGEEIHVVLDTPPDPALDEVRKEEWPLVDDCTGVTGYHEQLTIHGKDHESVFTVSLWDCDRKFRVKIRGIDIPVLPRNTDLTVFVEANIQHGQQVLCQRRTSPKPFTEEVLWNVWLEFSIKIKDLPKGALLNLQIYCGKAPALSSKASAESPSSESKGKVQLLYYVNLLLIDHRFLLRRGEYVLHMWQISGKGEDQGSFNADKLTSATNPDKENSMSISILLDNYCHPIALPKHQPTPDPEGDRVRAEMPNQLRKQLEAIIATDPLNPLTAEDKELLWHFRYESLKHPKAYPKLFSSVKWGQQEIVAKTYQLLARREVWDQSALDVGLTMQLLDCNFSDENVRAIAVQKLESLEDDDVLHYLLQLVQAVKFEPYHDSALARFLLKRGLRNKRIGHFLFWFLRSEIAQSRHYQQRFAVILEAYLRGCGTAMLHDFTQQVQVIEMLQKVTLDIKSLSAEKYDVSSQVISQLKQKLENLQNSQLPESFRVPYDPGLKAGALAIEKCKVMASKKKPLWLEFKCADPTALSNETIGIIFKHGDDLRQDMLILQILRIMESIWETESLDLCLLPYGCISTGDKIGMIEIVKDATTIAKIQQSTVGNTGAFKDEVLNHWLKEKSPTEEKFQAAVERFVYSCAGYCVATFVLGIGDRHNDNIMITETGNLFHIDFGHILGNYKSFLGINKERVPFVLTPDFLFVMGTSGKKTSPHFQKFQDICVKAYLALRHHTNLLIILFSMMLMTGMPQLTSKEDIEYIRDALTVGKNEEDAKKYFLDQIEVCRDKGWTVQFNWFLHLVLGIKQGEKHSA
Sequence of BRAF^WT (P15056 whole entry): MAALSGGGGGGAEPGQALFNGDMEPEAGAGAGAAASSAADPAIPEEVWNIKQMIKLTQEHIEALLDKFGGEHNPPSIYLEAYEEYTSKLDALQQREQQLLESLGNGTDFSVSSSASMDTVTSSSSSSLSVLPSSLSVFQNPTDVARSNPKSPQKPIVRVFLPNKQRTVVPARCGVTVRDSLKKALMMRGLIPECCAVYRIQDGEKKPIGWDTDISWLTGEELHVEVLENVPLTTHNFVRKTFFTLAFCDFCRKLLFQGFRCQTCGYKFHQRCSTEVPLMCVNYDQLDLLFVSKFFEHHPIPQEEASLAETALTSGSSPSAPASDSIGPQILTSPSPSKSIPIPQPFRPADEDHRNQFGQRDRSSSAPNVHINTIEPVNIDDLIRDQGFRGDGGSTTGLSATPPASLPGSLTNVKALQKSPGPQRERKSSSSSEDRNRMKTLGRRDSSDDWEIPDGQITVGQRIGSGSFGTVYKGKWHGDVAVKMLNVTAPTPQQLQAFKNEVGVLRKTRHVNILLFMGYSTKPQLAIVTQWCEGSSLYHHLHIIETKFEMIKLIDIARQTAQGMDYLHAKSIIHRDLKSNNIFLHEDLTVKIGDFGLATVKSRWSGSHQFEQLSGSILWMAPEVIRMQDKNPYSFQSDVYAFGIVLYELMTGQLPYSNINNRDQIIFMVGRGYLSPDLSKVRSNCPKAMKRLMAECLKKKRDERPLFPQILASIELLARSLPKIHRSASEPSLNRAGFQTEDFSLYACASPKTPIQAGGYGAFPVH
Sequence of PAK1 (Q13153 whole entry): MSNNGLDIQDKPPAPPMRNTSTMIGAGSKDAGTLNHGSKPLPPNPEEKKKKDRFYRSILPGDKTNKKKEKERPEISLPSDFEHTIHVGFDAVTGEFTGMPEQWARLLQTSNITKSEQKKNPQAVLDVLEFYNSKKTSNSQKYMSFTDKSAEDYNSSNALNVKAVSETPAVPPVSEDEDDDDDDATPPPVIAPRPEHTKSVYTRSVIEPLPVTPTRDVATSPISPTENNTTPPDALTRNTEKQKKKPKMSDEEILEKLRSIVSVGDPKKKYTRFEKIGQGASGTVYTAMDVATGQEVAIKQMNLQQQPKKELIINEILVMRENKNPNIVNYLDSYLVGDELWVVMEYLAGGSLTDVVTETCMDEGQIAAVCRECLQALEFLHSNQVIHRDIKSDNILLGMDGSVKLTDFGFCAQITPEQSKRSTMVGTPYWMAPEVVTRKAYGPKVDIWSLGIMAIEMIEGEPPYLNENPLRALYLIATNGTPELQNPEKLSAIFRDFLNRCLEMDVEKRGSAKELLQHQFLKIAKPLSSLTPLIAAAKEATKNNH
Sequence of BRAF^V600E (P15056 whole entry V600E): as the sequence (P15056 whole entry) above, with V600E counted along it

IC50 [3] | inhibition of PAK1 [5] | IC50 [6] | inhibition of BRAF^V600E [7] | inhibition of BRAF^WT ([8]; inhibitor concentration of 4 μM, FIG. 3B) | inhibition against wild-type BRAF ([8]; inhibitor concentration of 10 μM, FIG. 6B) | PI3K inhibition / inhibitory potency (in words) ([3]; comparison among the inhibitors, FIG. 2C, FIG. 9) | inhibition of MST1 [9] | SMILES | cell proliferation (MTT) [1] | invasion of melanoma cells from 3D spheroids [2] | block of constitutive activity of AKT (phospho-AKT) [4]
41 nM |  |  |  |  |  |  |  | CN1C(=O)c2c(c3c4cc(O)ccc4[n]4c3c3c2cc(F)c[n+]3[Ru-2]42356([C]#[O+])[CH]4[CH]2[CH]3[C]5(C(=O)NC(C)(CO)CO)[CH]46)C1=O (single isomer, unassigned) [Compound E5E1] | inhibition of cell proliferation | completely blocked | block the constitutive activity of AKT in a concentration dependent manner
39 nM | did not show appreciable inhibition | ~10 µM | did not show appreciable inhibition | did not show appreciable inhibition | no detectable inhibition | potent | did not show appreciable inhibition | CN1C(=O)c2c(c3c4cc(O)ccc4[n]4c3c3c2cc(F)c[n+]3[Ru-2]42356([C]#[O+])[CH]4[CH]2[CH]3[C]5(C(=O)NC(C)(CO)CO)[CH]46)C1=O (single isomer, unassigned) [Compound E5E2] |  |  | 
 |  |  |  |  |  |  |  | O=c1cc(N2CCOCC2)oc2c(-c3ccccc3)cccc12 [LY294002, 2-(4-morpholinyl)-8-phenyl-4H-1-benzopyran-4-one, reference compound] | inhibition of cell proliferation |  | 

From US8106039B2, “Metal complex phosphatidyl-inositol-3-kinase inhibitors” (The Trustees Of The University Of Pennsylvania, priority 2008, dated 2012)
